Results from PMC6018602, “The virulence factor LecB varies in clinical isolates: consequences for ligand binding and drug discovery” (Chemical Science, 2016).
“And” between values parts separate entries of the source, which are not always exact repeats. Equal values may be shown once. Read-outs that look alike come from different tables or passages of the source.

Tests used:
LecBPA14 [1] = molecular target: T1, LecBPA14 (Pseudomonas aeruginosa, UniProt A0A0H2ZE85); experiment: biochemical; format: binding, P. aeruginosa PA14
Method: (§1) To quantify the binding affinities of the carbohydrates we adapted the competitive binding assay for LecBPA14 (Fig. S5 ^†) previously described for LecBPAO1.[18]
(§2) The competitive binding assay based on fluorescence polarization was performed as described previously for PAO1.[18] […] After addition of the reagents, the plate was incubated for 8–22 h at r.t. in a humidity chamber. […] The measured intensities were reduced by buffer values and fluorescence polarization was calculated. The data were analyzed using BMG Labtech MARS software and/or with Graphpad Prism and fitted according to the four parameter variable slope model. […] A minimum of three independent measurements of triplicates each was performed for every ligand.

LecBPAO1 [2] = molecular target: T2, LecBPAO1 (Pseudomonas aeruginosa, UniProt Q9HYN5); experiment: biochemical; format: binding, P. aeruginosa PAO1
Method: as §1, §2

[3] = molecular target: LecB from P. aeruginosa PA14 (Pseudomonas aeruginosa UCBPP-PA14); experiment: crystal structure; native LecB_(PA14), hanging drop vapor diffusion at 19 °C, molecular replacement with the tetramer of PDB 1UZV, 1.70 Å
[4] = molecular target: LecB from P. aeruginosa PA14 (Pseudomonas aeruginosa UCBPP-PA14); experiment: dynamic light scattering; 100 μM LecB in TBS/Ca (20 mM Tris, 137 mM NaCl, 2.6 mM KCl, pH 7.4, 1 mM CaCl2), 25 °C, Zetasizer Nano-ZS
LecBPA14 [5] = molecular target: T1, LecBPA14; experiment: biochemical; format: binding, P. aeruginosa PA14; remark: listed apart in the source
LecBPAO1 [6] = molecular target: T2, LecBPAO1; details: cited from earlier work; for N (LecBPAO1): ITC stoichiometry
LecBPAO1 [7] = molecular target: T2, LecBPAO1; experiment: biochemical; format: binding, P. aeruginosa PAO1; remark: listed apart in the source
[8] = LecBPAO1 IC50, competitive binding assay, Fig. 3
[9] = IC50 for LecBPAO1, competitive binding assay
[10] = individual ITC titrations, Fig. S6, TBS supplemented with 1 mM CaCl2
[11] = individual ITC titrations, Fig. S6, TBS supplemented with 1 mM CaCl2, protein and ligand concentrations vary

OC[C@H]1OC[C@@H](O)[C@@H](O)[C@@H]1O [Compound 9, 1-deoxy D-mannose]
IC50 (LecBPA14 [1]): 56000 ± 16000 nM

CC(=O)NC1C(OC2C(O)C(O)OC(CO)C2O)OC(CO)C(OC2OC(C)C(O)C(O)C2O)C1OC1OC(CO)C(O)C(O)C1OC1OC(C)C(O)C(O)C1O (stereo not shown) [Compound 16, Lewis^b]
IC50 (LecBPA14 [1]): 150 ± 10 nM
IC50 (LecBPAO1 [2]; [8]): 690 ± 40 nM

C[C@@H]1OC[C@@H](O)[C@H](O)[C@@H]1O [Compound 8, 1-deoxy L-fucose]
IC50 (LecBPA14 [1]): 610 ± 100 nM

LecB from P. aeruginosa PA14 (natural protein)
stoichiometry N [3]: 4
stoichiometry N [4]: 4

CO[C@H]1O[C@H](CO)[C@@H](O)[C@H](O)[C@@H]1O [Compound 5, methyl α-D-mannoside]
-TΔS (LecBPA14) (LecBPA14 [5]): -3.47 ± 0.0789 kcal/mol
G (LecBPA14 [5]): -6,63E+03 cal/mol and -6,52E+03 cal/mol and -6,48E+03 cal/mol
Ka (LecBPA14 [5]): 7,18E+04 1/M and 6,20E+04 1/M and 5,54E+04 1/M
N (LecBPA14) (LecBPA14 [5]): 1.03 ± 0.07
s (LecBPA14 [5]): 11,8 cal/molK and 11,3 cal/molK and 11,7 cal/molK
ΔH (LecBPA14) (LecBPA14 [5]): -3.08 ± 0.0813 kcal/mol
N (LecBPAO1) (LecBPAO1 [6]): 0.94
-TΔS (LecBPAO1) (LecBPAO1 [6]; ITC): -1.41 kcal/mol
ΔH (LecBPAO1) (LecBPAO1 [6]; ITC): -4.25 kcal/mol

OCC1OC(OC2C(O)OC(CO)C(O)C2O)C(O)C(O)C1O [Compound 10, α-1,2-D-mannosyl D-mannose]
IC50 (LecBPA14 [1]): 26000 ± 5000 nM
IC50 (LecBPAO1 [2]; [8]): 85000 ± 2000 nM

CC(=O)NC1C(OC2C(O)C(O)OC(CO)C2O)OC(CO)C(O)C1OC1OC(CO)C(O)C(O)C1OC1OC(C)C(O)C(O)C1O (stereo not shown) [Compound 14, H type I]
IC50 (LecBPA14 [1]): 910 ± 100 nM
IC50 (LecBPAO1 [2]; [8]): 2300 ± 100 nM

CC(=O)N[C@H]1[C@H](O[C@H]2[C@H](O)[C@@H](NC(C)=O)C(O)O[C@@H]2CO)O[C@H](CO)[C@@H](O[C@@H]2O[C@H](CO[C@H]3O[C@H](CO)[C@@H](O)[C@H](O)[C@@H]3O[C@@H]3O[C@H](CO)[C@@H](O[C@@H]4O[C@H](CO)[C@H](O)[C@H](O[C@@H]5O[C@H](CO)[C@@H](O[C@@H]6O[C@H](CO)[C@H](O)[C@H](O)[C@H]6O[C@@H]6O[C@@H](C)[C@@H](O)[C@@H](O)[C@@H]6O)[C@H](O)[C@H]5NC(C)=O)[C@H]4O)[C@H](O)[C@H]3NC(C)=O)[C@@H](O)[C@H](O[C@H]3O[C@H](CO)[C@@H](O)[C@H](O)[C@@H]3O[C@@H]3O[C@H](CO)[C@@H](O[C@@H]4O[C@H](CO)[C@H](O)[C@H](O[C@@H]5O[C@H](CO)[C@@H](O[C@@H]6O[C@H](CO)[C@H](O)[C@H](O)[C@H]6O[C@@H]6O[C@@H](C)[C@@H](O)[C@@H](O)[C@@H]6O)[C@H](O)[C@H]5NC(C)=O)[C@H]4O)[C@H](O)[C@H]3NC(C)=O)[C@@H]2O)[C@@H]1O (stereo partly shown) [Compound 23]
IC50 (LecBPA14 [1]): 35 nM
IC50 (LecBPAO1 [2]; [9]): 114 nM

CC(=O)NC1C(OC2C(O)C(O)OC(CO)C2O)OC(CO)C(OC2OC(C)C(O)C(O)C2O)C1OC1OC(CO)C(O)C(O)C1O (stereo not shown) [Compound 12, Lewis^a]
N (LecBPA14) (LecBPA14 [5]; ITC stoichiometry, 25 °C): 1.05 ± 0.11
-TΔS (LecBPA14) (LecBPA14 [5]; ITC, 25 °C): -0.813 ± 0.509 kcal/mol
ΔG (LecBPA14) (LecBPA14 [5]; ITC, 25 °C): -9.78 ± 0.196 kcal/mol
ΔH (LecBPA14) (LecBPA14 [5]; ITC, 25 °C): -8.99 ± 0.602 kcal/mol
Kd (LecBPA14 [5]; Kd (LecBPA14), ITC, 25 °C): 70 nM
Kd (LecBPA14 [5]; Kd, individual ITC titrations, Fig. S6, TBS supplemented with 1 mM CaCl2): 62.1 nM and 96.2 nM and 50.3 nM
G (LecBPA14 [5]; [10]): -9,83E+03 cal/mol and -9,57E+03 cal/mol and -9,96E+03 cal/mol
H (LecBPA14 [5]; [10]): -8.521 kcal/mol and -8.769 kcal/mol and -9.667 kcal/mol
s (LecBPA14 [5]; [10]): 4,39 cal/molK and 2,69 cal/molK and 0,969 cal/molK
Ka (LecBPA14 [5]; [11]): 1,61E+07 1/M and 1,04E+07 1/M and 1,99E+07 1/M
N (LecBPAO1) (LecBPAO1 [6]): 1.08
-TΔS (LecBPAO1) (LecBPAO1 [6]; ITC): -0.741 kcal/mol
ΔG (LecBPAO1) (LecBPAO1 [6]; ITC): -9.11 kcal/mol
ΔH (LecBPAO1) (LecBPAO1 [6]; ITC): -8.34 kcal/mol
Kd (LecBPAO1 [6]; read-out: Kd (LecBPAO1), ITC): 212 nM
IC50 (LecBPA14 [1]): 78 nM
IC50 (LecBPAO1 [2]; [9]): 166 nM
IC50 (LecBPAO1 [2]; [8]): 170 ± 10 nM

CO[C@@H]1OC[C@@H](O)[C@@H](O)[C@@H]1O [Compound 6, methyl β-D-arabinoside]
IC50 (LecBPA14 [1]): 1900 ± 400 nM

CO[C@@H]1O[C@@H](C)[C@@H](O)[C@@H](O)[C@@H]1O [Compound 2, methyl α-L-fucoside]
N (LecBPA14) (LecBPA14 [5]; ITC stoichiometry, 25 °C): 0.99 ± 0.04
-TΔS (LecBPA14) (LecBPA14 [5]; ITC, 25 °C): -1.5 ± 0.201 kcal/mol
ΔH (LecBPA14) (LecBPA14 [5]; ITC, 25 °C): -7.65 ± 0.227 kcal/mol
G (LecBPA14 [5]; [10]): -9,15E+03 cal/mol and -9,22E+03 cal/mol and -9,24E+03 cal/mol and -8,96E+03 cal/mol
H (LecBPA14 [5]; [10]): -7.957 kcal/mol and -7.593 kcal/mol and -7.612 kcal/mol and -7.414 kcal/mol
s (LecBPA14 [5]; [10]): 5,45 cal/molK and 5,47 cal/molK and 5,18 cal/molK and 4,01 cal/molK
Ka (LecBPA14 [5]; [11]): 3,69E+06 1/M
-TΔS (LecBPAO1) (LecBPAO1 [6]; ITC): 1.17 kcal/mol
ΔH (LecBPAO1) (LecBPAO1 [6]; ITC): -9.87 kcal/mol

OCC1OC(OC2C(O)C(O)OC(CO)C2O)C(O)C(O)C1O [Compound 11, α-1,3-D-mannosyl D-mannose]
IC50 (LecBPA14 [1]): 26000 ± 6000 nM
IC50 (LecBPAO1 [2]; [8]): 63000 ± 3000 nM

CC(=O)NC1C(OC2C(O)C(O)OC(CO)C2O)OC(CO)C(OC2OC(CO)C(O)C(O)C2OC2OC(C)C(O)C(O)C2O)C1O (stereo not shown) [Compound 15, H type II]
N (LecBPA14) (LecBPA14 [5]; ITC stoichiometry, 25 °C): 0.98 ± 0.03
-TΔS (LecBPA14) (LecBPA14 [5]; ITC, 25 °C): -2.75 ± 0.263 kcal/mol
ΔG (LecBPA14) (LecBPA14 [5]; ITC, 25 °C): -9.18 ± 0.22 kcal/mol
ΔH (LecBPA14) (LecBPA14 [5]; ITC, 25 °C): -6.43 ± 0.454 kcal/mol
Kd (LecBPA14 [5]; Kd (LecBPA14), ITC, 25 °C): 199 nM
Kd (LecBPAO1 [7]): 605 ± 140 nM
N (LecBPAO1) (LecBPAO1 [7]; ITC stoichiometry, 25 °C): 1.01 ± 0.07
-TΔS (LecBPAO1) (LecBPAO1 [7]; ITC, 25 °C): -0.837 ± 0.096 kcal/mol
ΔG (LecBPAO1) (LecBPAO1 [7]; ITC, 25 °C): -8.48 ± 0.12 kcal/mol
ΔH (LecBPAO1) (LecBPAO1 [7]; ITC, 25 °C): -7.67 ± 0.096 kcal/mol
IC50 (LecBPA14 [1]): 180 nM
IC50 (LecBPAO1 [2]; [9]): 930 nM

OC1[C@H](O)COC[C@H]1O [Compound 7, 1-deoxy D-arabinose]
IC50 (LecBPA14 [1]): 6800 ± 1200 nM
